This note sets out measurements from paper PMC12677652, “Procyanidin B3 and Its Derivatives Alleviate Neuronal Injury by Targeting G3BP1 for Ischemic Stroke Therapy” (Advanced Science, 2025).

Data set [1] deals with OGD/R‐treated HT22 cells. Description: Neuroprotective effect on OGD/R-treated HT22 cells, cell viability by CCK-8. In kind it is cell-based. To be noted: for viability at 2 µM / viability at 20 µM: Mus musculus, HT-22, 6 h OGD, 24 h reoxygenation with compound, relative to control cells, mean ± S.D., n = 3. As to the method:
HT22 cells were washed with phosphate buffered saline (PBS), then DMEM sugar‐free medium (Gibco, USA) was added and placed in the anaerobic incubator of 5% CO2, 1% O2, and 37 °C for 6 h. PB3 or other compounds were previously dissolved in DMEM/F‐12 with 10% FBS and 1% penicillin/streptomycin. After undergoing OGD for 6 h, the medium was replaced by DMEM/F‐12 with 10% FBS and 1% penicillin/streptomycin containing PB3 or other compounds and kept in a humidified 5% CO2, 37 °C incubator for 24 h.
The CCK‐8 assay kit (Yeasen, China) was used to assess cell viability. All operations were performed following instructions. HT22 cells were seeded into the 96‐well plate (3000 cells per well). The cells were cultured at 37 °C with 5% CO2 in a humidified incubator overnight. After 6 h of OGD, the medium was replaced by DMEM/F‐12 with 10% FBS and 1% penicillin/streptomycin containing PB3 or other compounds and kept in a humidified 5% CO2, 37 °C incubator for 24 h. Then, the cells were washed with PBS, the medium was replaced with DMEM/F‐12 with 10% FBS and 1% penicillin/streptomycin containing 10% CCK‐8 solution, and incubated for 1 h at 37 °C. The absorbance was assessed by a Synergy H1 multi‐mode microplate reader (BioTek, USA) at 450 nm.

In data set [2] the target is T1, G3BP1 (Mus musculus, UniProt P97855).
T1 construct: endogenous in cells; host or cells: HT22 cell lysate
Description: Pull-down analysis with PB3-BP probe in HT22 lysates. In kind it is binding. To be noted: 200 µM PB3‐BP, blocked by free PB3. As to the method: HT22 cells were grown to 90% confluency and harvested by trypsin and resuspended in 1 mL PBS (containing protease inhibitors and 0.1% Triton X‐100). The samples were subjected to three freeze–thaw cycles in liquid nitrogen. Each cell lysate was centrifuged (12000 g for 30 min at 4 °C), and the supernatant was collected. The protein concentrations were determined by a BCA protein assay kit (Thermo Scientific, USA). The lysates were adjusted to 2 mg mL^−1 and treated with 200 µM PB3 or DMSO, labeled with 200 µM of PB3‐BP or DMSO, and then put on ice under UV radiation at 365 nm for 1 h. The labeled proteins were precipitated with chloroform‐methanol. Then the precipitations were resuspended with 1.2% SDS/PBS and combined with 300 µM biotin‐PEG3‐azide, 100 µM tris(benzyltriazolylmethyl)amine, 1 mM tris(2‐carboxyethyl)phosphine hydrochloride, and 1 mM CuSO4 for 1 h. After this reaction, the proteomes were extracted again with chloroform‐methanol. The proteins were solubilized with 1.2% SDS/PBS and diluted 5x with PBS. The solubilized proteins were incubated with streptavidin beads (100 µL of slurry, Thermo Scientific, USA) at room temperature for 3 h with rotation. […] The eluted proteins were analyzed by SDS‐polyacrylamide gel electrophoresis and immunoblotted with anti‐G3BP1 antibody.

The format of data set [3] is physicochemical. The method, then: Furthermore, a small‐molecule procyanidin B3‐benzophenone probe (PB3‐BP, 2, Figure 2G) was synthesized based on a non‐protective condensation strategy (Scheme S1, Supporting Information).^[ [29] ^] The stability of compound 2 is poor, and its structure is determined by 2D‐NMR after acetylation (Figure S4, Supporting Information). […] To identify the specific targeting sites of PB3 on G3BP1, the ultraviolet‐crosslinked complex of PB3‐BP/G3BP1 was digested with trypsin and subjected to LC‐MS/MS analysis.^[ [30] ^] […] To evaluate the affinity between the wild type and four mutants (L105A, R107A, Q134A, D135A) ^[ [34] ^] of the G3BP1 NTF2L domain and PB3, molecular dynamics simulations were performed to analyze each complex system based on docking results.^[ [35] ^]

T1 sequence (P97855 whole entry): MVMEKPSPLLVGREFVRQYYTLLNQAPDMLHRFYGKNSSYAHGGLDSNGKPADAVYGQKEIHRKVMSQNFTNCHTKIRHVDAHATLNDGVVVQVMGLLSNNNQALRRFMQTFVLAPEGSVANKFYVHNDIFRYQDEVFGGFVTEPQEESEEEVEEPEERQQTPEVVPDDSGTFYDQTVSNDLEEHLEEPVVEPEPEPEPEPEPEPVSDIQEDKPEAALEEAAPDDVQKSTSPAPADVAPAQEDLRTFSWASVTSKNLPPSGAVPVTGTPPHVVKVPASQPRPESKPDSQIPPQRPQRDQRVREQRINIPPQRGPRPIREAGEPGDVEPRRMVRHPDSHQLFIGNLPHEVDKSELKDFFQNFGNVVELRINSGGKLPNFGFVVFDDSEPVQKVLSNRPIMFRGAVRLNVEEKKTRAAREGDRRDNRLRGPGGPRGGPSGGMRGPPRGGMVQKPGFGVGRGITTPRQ

`Oc1ccc([C@H]2Oc3c(-c4ccccc4)c(O)cc(O)c3[C@@H](c3c(O)cc(O)c4c3O[C@H](c3ccc(O)c(O)c3)[C@@H](O)C4)[C@@H]2O)cc1O` [Compound 6f, 8‐Phenyl‐(+)‐Catechin‐(4α,8)‐(+)‐Catechin]: in data set [1], the viability at 2 µM came out at 59.7 ± 7.43% and the viability at 20 µM amounted to 70.4 ± 7.72%.
On the same counts, the results for `COc1cc([C@H]2Oc3cc(O)cc(O)c3[C@@H](c3c(O)cc(O)c4c3O[C@H](c3ccc(O)c(O)c3)[C@@H](O)C4)[C@@H]2O)ccc1O` [Compound 13a, 3′‐O‐Methyl‐(+)‐Catechin‐(4α,8)‐(+)‐Catechin] are 59.6 ± 2.82% and 65.5 ± 4.74%.
With `CCc1c(O)cc(O)c2c1O[C@H](c1ccc(O)c(O)c1)[C@@H](O)[C@@H]2c1c(O)cc(O)c2c1O[C@H](c1ccc(O)c(O)c1)[C@@H](O)C2` [Compound 6b, 8‐Ethyl‐(+)‐Catechin‐(4α,8)‐(+)‐Catechin], in data set [1], the viability at 2 µM turned out to be 62 ± 9.21% and the viability at 20 µM stood at 73.6 ± 4.78%.
As to `CCCc1c(O)cc(O)c2c1O[C@H](c1ccc(O)c(O)c1)[C@@H](O)[C@@H]2c1c(O)cc(O)c2c1O[C@H](c1ccc(O)c(O)c1)[C@@H](O)C2` [Compound 6d, 8‐Propyl‐(+)‐Catechin‐(4α,8)‐(+)‐Catechin], in data set [1], the viability at 2 µM came to 62.1 ± 3.73% and the viability at 20 µM was determined as 78.8 ± 1.43%.
On to `CC1=NN(c2ccccc2)C(=O)C1` [EDA, edaravone, reference compound], for which, in data set [1], the viability at 2 µM is 60.8 ± 7.4% and the viability at 20 µM was found to be 71.5 ± 9.84%.
As for `C#CCN(Cc1ccc(C(=O)c2ccccc2)cc1)C(=O)COc1cc(O)c([C@@H]2c3c(O)cc(O)cc3O[C@H](c3ccc(O)c(O)c3)[C@H]2O)c2c1C[C@H](O)[C@@H](c1ccc(O)c(O)c1)O2` [Compound 2, N‐(4‐Benzoylbenzyl)‐2‐(((2R,2′R,3S,3′S,4S)‐2,2′‐bis(3,4‐dihydroxyphenyl)‐3,3′,5,7,7′‐pentahydroxy‐[4,8′‐bichroman]‐5′‐yl)oxy)‐N‐(prop‐2‐yn‐1‐yl)acetamide], the neuroprotective activity entry in data set [1] (100 µM, OGD/R‐treated HT22 cells) is “retained the neuroprotective activity of PB3”. For the same compound, the “pull-down of G3BP1” value in data set [2] was “pulled down”. Also, the stability result in data set [3] is given as “poor”.
In the case of `COc1ccc([C@H]2Oc3c(c(O)cc(O)c3[C@@H]3c4c(O)cc(O)cc4O[C@H](c4ccc(O)c(O)c4)[C@H]3O)C[C@@H]2O)cc1O` [Compound 13d, (+)‐Catechin‐(4α,8)‐[4′‐O‐Methyl‐(+)‐Catechin]], in data set [1], the viability at 2 µM is 63 ± 6.27% and the viability at 20 µM is 69 ± 8.76%.
Consider `CC(C)Cc1c(O)cc(O)c2c1O[C@H](c1ccc(O)c(O)c1)[C@@H](O)[C@@H]2c1c(O)cc(O)c2c1O[C@H](c1ccc(O)c(O)c1)[C@@H](O)C2` [Compound 6e, 8‐Isobutyl‐(+)‐Catechin‐(4α,8)‐(+)‐Catechin], for which, in data set [1], the viability at 2 µM worked out at 58.5 ± 8.12% and the viability at 20 µM was 67 ± 2.7%.
`Oc1ccc([C@H]2Oc3c(-c4cccnc4)c(O)cc(O)c3[C@@H](c3c(O)cc(O)c4c3O[C@H](c3ccc(O)c(O)c3)[C@@H](O)C4)[C@@H]2O)cc1O` [Compound 6h, 8‐(Pyridin‐3‐yl)‐(+)‐Catechin‐(4α,8)‐(+)‐Catechin]: in data set [1], the viability at 2 µM is 58.8 ± 7.12% and the viability at 20 µM was found to be 75.3 ± 4.68%.
For the compound `Oc1ccc([C@H]2Oc3c(-c4ccncc4)c(O)cc(O)c3[C@@H](c3c(O)cc(O)c4c3O[C@H](c3ccc(O)c(O)c3)[C@@H](O)C4)[C@@H]2O)cc1O` [Compound 6g, 8‐(Pyridin‐4‐yl)‐(+)‐Catechin‐(4α,8)‐(+)‐Catechin], in data set [1], the viability at 2 µM is 55.9 ± 8.56% and the viability at 20 µM is 71.4 ± 1.74%.
With `CC(=O)O[C@H]1[C@H](c2c(O)cc(O)c3c2O[C@H](c2ccc(O)c(O)c2)[C@@H](OC(C)=O)C3)c2c(O)cc(O)cc2O[C@@H]1c1ccc(O)c(O)c1` [Compound 8, 3‐O‐Acetyl‐(+)‐Catechin‐(4α,8)‐[3‐O‐Acetyl‐(+)‐Catechin]], in data set [1], the viability at 2 µM was 62 ± 5.58% and the viability at 20 µM amounted to 69.3 ± 6.73%.
For `Cc1c(O)cc(O)c2c1O[C@H](c1ccc(O)c(O)c1)[C@@H](O)[C@@H]2c1c(O)cc(O)c2c1O[C@H](c1ccc(O)c(O)c1)[C@@H](O)C2` [Compound 6a, 8‐Methyl‐(+)‐Catechin‐(4α,8)‐(+)‐Catechin], in data set [1], the viability at 2 µM came out at 56.7 ± 2.22% and the viability at 20 µM stood at 70.2 ± 2.92%.
For `COc1ccc([C@H]2Oc3cc(O)cc(O)c3[C@@H](c3c(O)cc(O)c4c3O[C@H](c3ccc(O)c(O)c3)[C@@H](O)C4)[C@@H]2O)cc1O` [Compound 13b, 4′‐O‐Methyl‐(+)‐Catechin‐(4α,8)‐(+)‐Catechin], in that order: 57.5 ± 7.11% and 70.54 ± 0.41%.
As to `COc1cc(OC)c2c(c1)O[C@H](c1ccc(OC)c(OC)c1)[C@@H](O)[C@@H]2c1c(OC)cc(OC)c2c1O[C@H](c1ccc(OC)c(OC)c1)[C@@H](O)C2` [Compound 9, 5,7,3′,4′‐Tetra‐O‐Methyl‐(+)‐Catechin‐(4α, 8)‐[5,7,3′,4′‐Tetra‐O‐Methyl‐(+)‐Catechin]], in data set [1], the viability at 2 µM came to 52.6 ± 7.34% and the viability at 20 µM worked out at 66.8 ± 1.89%.
On to `COc1cc([C@H]2Oc3c(c(O)cc(O)c3[C@@H]3c4c(O)cc(O)cc4O[C@H](c4ccc(O)c(O)c4)[C@H]3O)C[C@@H]2O)ccc1O` [Compound 13c, (+)‐Catechin‐(4α,8)‐[3′‐O‐Methyl‐(+)‐Catechin]], for which, in data set [1], the viability at 2 µM stood at 66.2 ± 10.6% and the viability at 20 µM was found to be 66.1 ± 2.9%.
